Molecular target: T1, Jarid1B (Homo sapiens, UniProt Q9UGL1)
T1 construct: purchased BPS Bioscience or custom made by MolecularThroughput 50121
T1 sequence (Q9UGL1 2-751): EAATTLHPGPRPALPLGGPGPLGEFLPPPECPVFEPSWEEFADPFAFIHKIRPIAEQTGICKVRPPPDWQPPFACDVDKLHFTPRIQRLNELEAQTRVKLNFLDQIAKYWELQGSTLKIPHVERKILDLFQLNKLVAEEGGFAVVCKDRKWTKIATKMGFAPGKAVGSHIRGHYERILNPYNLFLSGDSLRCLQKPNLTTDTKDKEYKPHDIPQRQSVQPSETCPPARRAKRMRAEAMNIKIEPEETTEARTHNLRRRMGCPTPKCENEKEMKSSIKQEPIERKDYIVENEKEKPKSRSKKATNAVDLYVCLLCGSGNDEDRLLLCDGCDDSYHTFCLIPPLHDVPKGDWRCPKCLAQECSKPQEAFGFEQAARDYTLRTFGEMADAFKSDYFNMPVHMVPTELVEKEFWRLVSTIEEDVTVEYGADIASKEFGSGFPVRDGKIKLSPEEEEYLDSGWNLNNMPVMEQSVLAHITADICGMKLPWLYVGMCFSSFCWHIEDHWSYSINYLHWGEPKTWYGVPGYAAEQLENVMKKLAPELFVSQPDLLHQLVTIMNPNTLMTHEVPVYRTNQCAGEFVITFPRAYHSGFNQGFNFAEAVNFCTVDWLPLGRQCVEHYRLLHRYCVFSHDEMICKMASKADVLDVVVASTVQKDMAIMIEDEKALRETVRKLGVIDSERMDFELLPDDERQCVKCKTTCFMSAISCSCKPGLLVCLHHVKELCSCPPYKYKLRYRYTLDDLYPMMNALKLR
Experiment: Jarid1B in vitro enzyme inhibition assay (TR-FRET)
Format: biochemical
How it was run: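 Jarid1B (AA 2-751, baculovirus-expressed) at 0.8 nM with 300 nM biotin-H3K4me3 peptide and 2 μM α-ketoglutarate in HEPES pH 7.3 with ascorbate and Fe(II), 30 min at room temperature. Stopped with EDTA; H3K4me1-2 product detected by TR-FRET (665/615 ratio) and IC50 fitted from 11-point dilutions.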

IC50	Structure (SMILES)
≤ 0.1 µM	Oc1nc(Oc2cnn([C@@H]3CCN(c4ccc(F)cc4)C3)c2)nc2cnccc12 [Example 134, 2-({1-[(3R)-1-(4-fluorophenyl)pyrrolidin-3-yl]-1H-pyrazol-4-yl}oxy)pyrido[3,4-d]pyrimidin-4-ol]
≤ 0.1 µM	Oc1nc(Oc2cnn([C@H]3CCNC3)c2)nc2cnccc12 [Example 135, 2-({1-[(3S)-pyrrolidin-3-yl]-1H-pyrazol-4-yl}oxy)pyrido[3,4-d]pyrimidin-4-ol]
≤ 0.1 µM	CCS(=O)(=O)N1CC[C@H](n2cc(Oc3nc(O)c4ccncc4n3)cn2)C1 [Example 136, 2-({1-[(3S)-1-(ethanesulfonyl)pyrrolidin-3-yl]-1H-pyrazol-4-yl}oxy)pyrido[3,4-d]pyrimidin-4-ol]
≤ 0.1 µM	O=S(=O)(C1CC1)N1CC[C@H](n2cc(Oc3nc(O)c4ccncc4n3)cn2)C1 [Example 137, 2-({1-[(3S)-1-(cyclopropanesulfonyl)pyrrolidin-3-yl]-1H-pyrazol-4-yl}oxy)pyrido[3,4-d]pyrimidin-4-ol]
≤ 0.1 µM	O=S(=O)(c1ccccc1)N1CC[C@H](n2cc(Oc3nc(O)c4ccncc4n3)cn2)C1 [Example 138, 2-({1-[(3S)-1-(benzenesulfonyl)pyrrolidin-3-yl]-1H-pyrazol-4-yl}oxy)pyrido[3,4-d]pyrimidin-4-ol]
≤ 0.1 µM	CC(=O)N1CC[C@H](n2cc(Oc3nc(O)c4ccncc4n3)cn2)C1 [Example 139, 1-[(3S)-3-[4-({4-hydroxypyrido[3,4-d]pyrimidin-2-yl}oxy)-1H-pyrazol-1-yl]pyrrolidin-1-yl]ethan-1-one]
≤ 0.1 µM	N#CCC(=O)N1CC[C@H](n2cc(Oc3nc(O)c4ccncc4n3)cn2)C1 [Example 140, 3-[(3S)-3-[4-({4-hydroxypyrido[3,4-d]pyrimidin-2-yl}oxy)-1H-pyrazol-1-yl]pyrrolidin-1-yl]-3-oxopropanenitrile]
≤ 0.1 µM	O=C(C1CC1)N1CC[C@H](n2cc(Oc3nc(O)c4ccncc4n3)cn2)C1 [Example 141, 2-({1-[(3S)-1-cyclopropanecarbonylpyrrolidin-3-yl]-1H-pyrazol-4-yl}oxy)pyrido[3,4-d]pyrimidin-4-ol]
≤ 0.1 µM	O=C(c1ccccc1)N1CC[C@H](n2cc(Oc3nc(O)c4ccncc4n3)cn2)C1 [Example 142, 2-({1-[(3S)-1-benzoylpyrrolidin-3-yl]-1H-pyrazol-4-yl}oxy)pyrido[3,4-d]pyrimidin-4-ol]
≤ 0.1 µM	O=C(C1CCNCC1)N1CC[C@H](n2cc(Oc3nc(O)c4ccncc4n3)cn2)C1 [Example 143, 2-({1-[(3S)-1-(piperidine-4-carbonyl)pyrrolidin-3-yl]-1H-pyrazol-4-yl}oxy)pyrido[3,4-d]pyrimidin-4-ol]
≤ 0.1 µM	CNCC(=O)N1CC[C@H](n2cc(Oc3nc(O)c4ccncc4n3)cn2)C1 [Example 144, 1-[(3S)-3-[4-({4-hydroxypyrido[3,4-d]pyrimidin-2-yl}oxy)-1H-pyrazol-1-yl]pyrrolidin-1-yl]-2-(methylamino)ethan-1-one]
≤ 0.1 µM	Oc1nc(Oc2cnn([C@H]3CCN(c4ccccc4)C3)c2)nc2cnccc12 [Example 145, 2-({1-[(3S)-1-phenylpyrrolidin-3-yl]-1H-pyrazol-4-yl}oxy)pyrido[3,4-d]pyrimidin-4-ol]
≤ 0.1 µM	Oc1nc(Oc2cnn([C@H]3CCN(c4ccc(F)cc4)C3)c2)nc2cnccc12 [Example 146, 2-({1-[(3S)-1-(4-fluorophenyl)pyrrolidin-3-yl]-1H-pyrazol-4-yl}oxy)pyrido[3,4-d]pyrimidin-4-ol]
≤ 0.1 µM	Oc1nc(Oc2cnn([C@H]3CCN(c4ccccc4F)C3)c2)nc2cnccc12 [Example 147, 2-({1-[(3S)-1-(2-fluorophenyl)pyrrolidin-3-yl]-1H-pyrazol-4-yl}oxy)pyrido[3,4-d]pyrimidin-4-ol]
≤ 0.1 µM	Oc1nc(Oc2cnn([C@H]3CCN(c4ccc(Cl)cc4)C3)c2)nc2cnccc12 [Example 148, 2-({1-[(3S)-1-(4-chlorophenyl)pyrrolidin-3-yl]-1H-pyrazol-4-yl}oxy)pyrido[3,4-d]pyrimidin-4-ol]
≤ 0.1 µM	Oc1nc(Oc2cnn([C@@H]3CCCNC3)c2)nc2cnccc12 [Example 149, 2-({1-[(3R)-piperidin-3-yl]-1H-pyrazol-4-yl}oxy)pyrido[3,4-d]pyrimidin-4-ol]
≤ 0.1 µM	CCS(=O)(=O)N1CCC[C@@H](n2cc(Oc3nc(O)c4ccncc4n3)cn2)C1 [Example 150, 2-({1-[(3R)-1-(ethanesulfonyl)piperidin-3-yl]-1H-pyrazol-4-yl}oxy)pyrido[3,4-d]pyrimidin-4-ol]

IC50	Structure (SMILES)
≤ 0.1 µM	O=S(=O)(c1ccccc1)N1CCC[C@@H](n2cc(Oc3nc(O)c4ccncc4n3)cn2)C1 [Example 152, 2-({1-[(3R)-1-(benzenesulfonyl)piperidin-3-yl]-1H-pyrazol-4-yl}oxy)pyrido[3,4-d]pyrimidin-4-ol]
≤ 0.1 µM	CC(=O)N1CCC[C@@H](n2cc(Oc3nc(O)c4ccncc4n3)cn2)C1 [Example 153, 1-[(3R)-3-[4-({4-hydroxypyrido[3,4-d]pyrimidin-2-yl}oxy)-1H-pyrazol-1-yl]piperidin-1-yl]ethan-1-one]
≤ 0.1 µM	N#CCC(=O)N1CCC[C@@H](n2cc(Oc3nc(O)c4ccncc4n3)cn2)C1 [Example 154, 3-[(3R)-3-[4-({4-hydroxypyrido[3,4-d]pyrimidin-2-yl}oxy)-1H-pyrazol-1-yl]piperidin-1-yl]-3-oxopropanenitrile]
≤ 0.1 µM	O=C(CO)N1CC[C@H](n2cc(Oc3nc(O)c4ccncc4n3)cn2)C1 [Example 155, 2-hydroxy-1-[(3S)-3-[4-({4-hydroxypyrido[3,4-d]pyrimidin-2-yl}oxy)-1H-pyrazol-1-yl]pyrrolidin-1-yl]ethan-1-one]
≤ 0.1 µM	O=C(C1CC1)N1CCC[C@@H](n2cc(Oc3nc(O)c4ccncc4n3)cn2)C1 [Example 156, 2-({1-[(3R)-1-cyclopropanecarbonylpiperidin-3-yl]-1H-pyrazol-4-yl}oxy)pyrido[3,4-d]pyrimidin-4-ol]
≤ 0.1 µM	O=C(c1ccccc1)N1CCC[C@@H](n2cc(Oc3nc(O)c4ccncc4n3)cn2)C1 [Example 157, 2-({1-[(3R)-1-benzoylpiperidin-3-yl]-1H-pyrazol-4-yl}oxy)pyrido[3,4-d]pyrimidin-4-ol]
≤ 0.1 µM	Oc1nc(Oc2cnn([C@@H]3CCCN(Cc4ccccc4)C3)c2)nc2cnccc12 [Example 158, 2-({1-[(3R)-1-benzylpiperidin-3-yl]-1H-pyrazol-4-yl}oxy)pyrido[3,4-d]pyrimidin-4-ol]
≤ 0.1 µM	Oc1nc(Oc2cnn([C@@H]3CCCN(c4ccc(F)cc4)C3)c2)nc2cnccc12 [Example 159, 2-({1-[(3R)-1-(4-fluorophenyl)piperidin-3-yl]-1H-pyrazol-4-yl}oxy)pyrido[3,4-d]pyrimidin-4-ol]
≤ 0.1 µM	Oc1nc(Oc2cnn([C@H]3CCCNC3)c2)nc2cnccc12 [Example 160, 2-({1-[(3S)-piperidin-3-yl]-1H-pyrazol-4-yl}oxy)pyrido[3,4-d]pyrimidin-4-ol]
≤ 0.1 µM	CCS(=O)(=O)N1CCC[C@H](n2cc(Oc3nc(O)c4ccncc4n3)cn2)C1 [Example 161, 2-({1-[(3S)-1-(ethanesulfonyl)piperidin-3-yl]-1H-pyrazol-4-yl}oxy)pyrido[3,4-d]pyrimidin-4-ol]
≤ 0.1 µM	O=S(=O)(C1CC1)N1CCC[C@H](n2cc(Oc3nc(O)c4ccncc4n3)cn2)C1 [Example 162, 2-({1-[(3S)-1-(cyclopropanesulfonyl)piperidin-3-yl]-1H-pyrazol-4-yl}oxy)pyrido[3,4-d]pyrimidin-4-ol]
≤ 0.1 µM	O=S(=O)(c1ccccc1)N1CCC[C@H](n2cc(Oc3nc(O)c4ccncc4n3)cn2)C1 [Example 163, 2-({1-[(3S)-1-(benzenesulfonyl)piperidin-3-yl]-1H-pyrazol-4-yl}oxy)pyrido[3,4-d]pyrimidin-4-ol]
≤ 0.1 µM	CC(=O)N1CCC[C@H](n2cc(Oc3nc(O)c4ccncc4n3)cn2)C1 [Example 164, 1-[(3S)-3-[4-({4-hydroxypyrido[3,4-d]pyrimidin-2-yl}oxy)-1H-pyrazol-1-yl]piperidin-1-yl]ethan-1-one]
≤ 0.1 µM	O=C(C1CC1)N1CCC[C@H](n2cc(Oc3nc(O)c4ccncc4n3)cn2)C1 [Example 165, 2-({1-[(3S)-1-cyclopropanecarbonylpiperidin-3-yl]-1H-pyrazol-4-yl}oxy)pyrido[3,4-d]pyrimidin-4-ol]
≤ 0.1 µM	N#CCC(=O)N1CCC[C@H](n2cc(Oc3nc(O)c4ccncc4n3)cn2)C1 [Example 166, 3-[(3S)-3-[4-({4-hydroxypyrido[3,4-d]pyrimidin-2-yl}oxy)-1H-pyrazol-1-yl]piperidin-1-yl]-3-oxopropanenitrile]
≤ 0.1 µM	O=C(c1ccccc1)N1CCC[C@H](n2cc(Oc3nc(O)c4ccncc4n3)cn2)C1 [Example 167, 2-({1-[(3S)-1-benzoylpiperidin-3-yl]-1H-pyrazol-4-yl}oxy)pyrido[3,4-d]pyrimidin-4-ol]

Source: patent US10526327B2, “Histone demethylase inhibitors” (CELGENE QUANTICEL RESEARCH, INC., priority 2013, dated 2020)
